Reference: ChEMBL document CHEMBL1130788, “Synthesis and antitumor activity of leinamycin derivatives: modifications of C-8 hydroxy and C-9 keto groups” (Bioorg Med Chem Lett, 1998)

Legend:
HeLa = experiment: In vitro antiproliferative activity against human uterine carcinoma HeLa S3 cells.; type: functional, cell-based
P388 [1] = experiment: In vivo antitumor activity of compound was tested as maximal increase in life span (ILSmax) against lymphocytic leukemia P388 in mice; type: functional, Mus musculus
P388 [2] = experiment: Compound was tested in vivo for antitumor activity against lymphocytic leukemia P388 in mice; type: functional, Mus musculus

| SMILES | IC50 (HeLa; Homo sapiens, HeLa) [nM] | ILSmax (P388 [1]) [%] | Optimal dose (P388 [2]) [mg/kg] | IC50 (HeLa; hela) [nM] |
| --- | --- | --- | --- | --- |
| C/C1=C\[C@@H](OC(=O)C2CCCCC2)C(=O)/C=C/C=C\c2csc(n2)[C@@H](C)NC(=O)C[C@@]2(CC1)[S+]([O-])SC(=O)[C@]2(C)O (stereo partly drawn) | 58 | 49 | 4 |  |
| C/C1=C\[C@@H](OC(=O)c2ccccc2)C(=O)/C=C/C=C\c2csc(n2)[C@@H](C)NC(=O)C[C@@]2(CC1)[S+]([O-])SC(=O)[C@]2(C)O (stereo partly drawn) | 130 | 36 | 2 |  |
| CCOC(=O)O[C@@H]1/C=C(\C)CC[C@]2(CC(=O)N[C@H](C)c3nc(cs3)/C=C\C=C\C1=O)[S+]([O-])SC(=O)[C@]2(C)O (stereo partly drawn) | 1.4 | 31 | 2 |  |
| C/C1=C\[C@@H](OC(=O)Oc2ccc([N+](=O)[O-])cc2)C(=O)/C=C/C=C\c2csc(n2)[C@@H](C)NC(=O)C[C@@]2(CC1)[S+]([O-])SC(=O)[C@]2(C)O (stereo partly drawn) | 22 | 57 | 2 |  |
| CC(=O)O[C@@H]1/C=C(\C)CC[C@]2(CC(=O)N[C@H](C)c3nc(cs3)/C=C\C=C\C1=O)[S+]([O-])SC(=O)[C@]2(C)O (stereo partly drawn) | 10 | 34 | 1 |  |
| C/C1=C\[C@@H](OC2CCCCO2)C(=O)/C=C/C=C\c2csc(n2)[C@@H](C)NC(=O)C[C@@]2(CC1)[S+]([O-])SC(=O)[C@]2(C)O (stereo partly drawn) | 1.3 | 28 | 0.13 |  |
| C/C1=C\[C@@H](OC(=O)c2cnc3ccccc3n2)C(=O)/C=C/C=C\c2csc(n2)[C@@H](C)NC(=O)C[C@@]2(CC1)[S+]([O-])SC(=O)[C@]2(C)O (stereo partly drawn) | 6.8 | 44 | 2 |  |
| C/C1=C\[C@@H](O)C(=N/O)/C=C/C=C\c2csc(n2)[C@@H](C)NC(=O)C[C@@]2(CC1)[S+]([O-])SC(=O)[C@]2(C)O (stereo partly drawn) | 910 |  |  |  |
| CCCCCCCCCCCCCCCC(=O)O[C@@H]1/C=C(\C)CC[C@]2(CC(=O)N[C@H](C)c3nc(cs3)/C=C\C=C\C1=O)[S+]([O-])SC(=O)[C@]2(C)O (stereo partly drawn) | 7700 | 37 | 16 |  |
| C/C1=C\[C@@H](OC(=O)N2CCCCC2)C(=O)/C=C/C=C\c2csc(n2)[C@@H](C)NC(=O)C[C@@]2(CC1)[S+]([O-])SC(=O)[C@]2(C)O (stereo partly drawn) | 180 |  |  |  |
| COC1(O[C@@H]2/C=C(\C)CC[C@]3(CC(=O)N[C@H](C)c4nc(cs4)/C=C\C=C\C2=O)[S+]([O-])SC(=O)[C@]3(C)O)CCOCC1 (stereo partly drawn) | 18 | 35 | 2 |  |
| CC(=O)O[C@@H]1/C=C(\C)CC[C@]2(CC(=O)N[C@H](C)c3nc(cs3)/C=C\C=C\C1=O)[S+]([O-])SC(=O)[C@]2(C)OC(C)=O (stereo partly drawn) | 780 | 15 | 2 |  |
| COC1(OC)/C=C/C=C\c2csc(n2)[C@@H](C)NC(=O)C[C@@]2(CC/C(C)=C/[C@H]1O)[S+]([O-])SC(=O)[C@]2(C)O (stereo partly drawn) | > 10000 |  |  |  |
| C/C1=C\[C@@H](O)C(O)/C=C/C=C\c2csc(n2)[C@@H](C)NC(=O)C[C@@]2(CC1)[S+]([O-])SC(=O)[C@]2(C)O (stereo in doubt; 7-1) |  |  |  | 6200 |
| C/C1=C\[C@@H](O)C(O)/C=C/C=C\c2csc(n2)[C@@H](C)NC(=O)C[C@@]2(CC1)[S+]([O-])SC(=O)[C@]2(C)O (stereo in doubt; 7-2) | 4900 |  |  |  |
| CO\N=C1/C=C/C=C\c2csc(n2)[C@@H](C)NC(=O)C[C@@]2(CC/C(C)=C/[C@H]1O)[S+]([O-])SC(=O)[C@]2(C)O (stereo in doubt; 9b-1) |  |  |  | 67 |
| CO\N=C1/C=C/C=C\c2csc(n2)[C@@H](C)NC(=O)C[C@@]2(CC/C(C)=C/[C@H]1O)[S+]([O-])SC(=O)[C@]2(C)O (stereo in doubt; 9b-2) | 110 | 21 | 2 |  |
| C/C1=C\[C@@H](O)C(=N/OCc2ccccc2)/C=C/C=C\c2csc(n2)[C@@H](C)NC(=O)C[C@@]2(CC1)[S+]([O-])SC(=O)[C@]2(C)O (stereo in doubt; 9c-1) |  | 29 | 8 | 110 |
| C/C1=C\[C@@H](O)C(=N/OCc2ccccc2)/C=C/C=C\c2csc(n2)[C@@H](C)NC(=O)C[C@@]2(CC1)[S+]([O-])SC(=O)[C@]2(C)O (stereo in doubt; 9c-2) |  | 31 | 2 | 9.5 |
| C/C1=C\[C@@H](O)C(=O)/C=C/C=C\c2csc(n2)[C@@H](C)NC(=O)C[C@@]2(CC1)[S+]([O-])SC(=O)[C@]2(C)O (stereo partly drawn) [LEINAMYCIN] | 11 | 57 | 0.38 |  |
